Among the data in the pKa sets of Baltruschat and Czodrowski (2020) are pKa values, retold here.

Molecules are shown by their SMILES. Where a SMILES comes first, the peptide text is derived from it.

The conditions of the first data set: acidic group.
The term pKa denotes the pH at which an ionisable group is half protonated. Low values mean a stronger acid or weaker base, high ones a weaker acid or stronger base. `Cc1cc(=O)oc2cc(O)c(Cl)cc12` yielded a pKa of 6.1.
Still for that read-out and setting: the same measure for `CCNc1nnn[nH]1`: 6.12; for `Clc1nnn[nH]1`: 2.07; for `O=C1Cc2cc(O)ccc21`: 7.24.
`Nc1ccc(O)c2ncccc12` registered a pKa of 11.2.
`O=C(/C=C(/[70SH])c1ccccc1)Nc1ccccc1` displayed a pKa of 4.51.
Consider `O=c1cc(-c2ccc(O)cc2)ss1`, for which the pKa was 8.27.
`O=C(O)c1cccc(Cl)c1` displayed a pKa of 3.8.
`O=C(Nc1ccccc1)ONC(=O)c1ccccc1`: the pKa worked out at 6.4.
`Cc1cccc(O)c1C` showed a pKa of 10.5.
With `Nc1ccc(O)cc1O`, the pKa amounted to 9.3.
In turn, `O=C(O)c1cccc[n+]1[O-]` registered a pKa of 3.54.
The same measure, in the same setting: with `O=CC(c1ccccc1)c1ccccc1` the figure was 9.39; with `CC[NH+](CC)CC(=O)O`, 1.98; with `CCNc1ncnc2[nH]ncc12`, 10.9.
On to `S=C(Nc1ccc(Cl)cc1)c1ccc(Cl)cc1`, for which the pKa was 10.2.
`Cc1csc(Cc2ccccc2)[n+]1C` came in with a pKa of 10.8.
The compound `[O-][n+]1cnc2[nH]cnc2c1NCc1ccccc1` showed a pKa of 8.22.
Compound `SCC[NH2+]CCc1ccccc1` registered a pKa of 7.85.
On to `COc1cc([N+](=O)[O-])ccc1O`, for which the pKa stood at 6.83.
Same read-out and setting: with `Cc1nc(-c2ccccc2)oc1O` the figure was 8.94; with `O=P([O-])(O)C([NH2+]Cc1ccncc1)c1ccccc1O` (stereo unspecified), 5.2; with `Cc1cc2nc[nH]c2cc1C`, 12.5.
The compound `CC(=O)CC(=O)Nc1ccccc1` returned a pKa of 9.94.
`O=C(O)[C@@H]1C[C@@H]1Cl` yielded a pKa of 4.12.
On the same count and under the same terms, the same measure for `S=C1NCCO1`: 11.1.
Consider `O=C1Oc2ccccc2C(=O)C1Cc1c([O-])c2ccccc2oc1=O` (stereo unspecified), for which the pKa was 8.3.
The same measure, in the same setting: with `Brc1ccccc1-c1nnn[nH]1` the figure was 3.83; with `[NH3+]Cc1ccc(C(=O)O)cc1`, 3.59.
On the same count and under the same terms, the same measure for `O=C(O)c1cccc(I)c1`: 3.83.
In turn, `CCCCCCCc1c(-c2ccccc2)n[nH]c1O` yielded a pKa of 9.2.
With `CCC(P)C(=O)O` (stereo unspecified), the pKa is 4.08.
Consider `NC(=O)c1ccncc1`, for which the pKa turned out to be 10.5.
Same read-out and setting: the same measure for `O=C(O)c1cc(Cl)co1`: 2.69.
Still for that read-out and setting: with `COc1ccccc1C(=O)O` the figure was 4.05.
On the same count and under the same terms, the same measure for `Cc1cccc(Br)c1C(=O)O`: 2.71.
Compound `Cn1c(=O)[nH]c2nc[nH]c2c1=O` gave a pKa of 7.88.
Consider `COc1cccc(=O)c(O)c1`, for which the pKa turned out to be 7.24.
With `NC(=O)Nc1ncnc2nc[nH]c12`, the pKa is 9.95.
Compound `CC/C=C/Cc1nc(C(=O)[O-])cn1[C@H](C(=O)[O-])C(C)(C)S` came in with a pKa of 10.2.
For the compound `Cc1cccc(CCCCCCCC(=O)O)[nH+]1`, the pKa turned out to be 4.6.
Consider `C=C(C)[C@H]1C[NH2+][C@H](C(=O)O)[C@H]1CC(=O)O`, for which the pKa was found to be 2.1.
`CC[NH+](CC)Cc1cc([N+](=O)[O-])ccc1O` yielded a pKa of 5.75.
Regarding `C[n+]1c2ccccc2cc2c(N)cccc21`, the pKa worked out at 10.
The same measure, in the same setting: with `CCCCC1(CC)C(=O)[N-]C(=S)NC1=O` the figure was 12.1.
`O=C(NO)[C@@H]1[C@H](C(=O)NO)[C@@H]2CC[C@H]1O2`: the pKa is 9.3.
On to `C[NH2+]CCCC(=O)O`, for which the pKa stood at 4.03.
Regarding `Cc1ccc2c(c1)C([P+](c1ccccc1)(c1ccccc1)c1ccccc1)c1ccccc1-2` (stereo unspecified), the pKa was 9.38.
In turn, `CCC#CC#CC#CC(=O)O` returned a pKa of 1.67.
`O=S(=O)(O)c1cccc(C(F)(F)F)c1`: the pKa is -6.93.
In turn, `COCCSC(C)O` (stereo unspecified) displayed a pKa of 14.2.
Still for that read-out and setting: the same measure for `O/C(=C\c1ccccc1)c1ccco1`: 8.5; for `COc1ncc2[nH]cnc2n1`: 9.2.
The same measure, in the same setting: the same measure for `NC(=O)c1cc(-c2ccccc2)nnc1NCCN1CCOCC1`: 6.85; for `O=C(O)c1cc[nH]c1`: 4.98; for `C[C@@H]1C[C@@H]1C(=O)O`: 5.03.
`Cn1c([O-])nc(=O)c2[nH]cnc21` showed a pKa of 11.7.
With `CC(C)(C)c1ccc(-c2c(O)c2=O)cc1`, the pKa was 2.21.
As for `CC(C)[C@H]([NH3+])C(=O)O`, the pKa was 2.32.
For `S=C(Nc1ccc(Cl)cc1)c1ccccc1`, the pKa was found to be 10.8.

The data set is the same for the next values; noted with them: basic group.
`CCN(C)C` had a pKa of 10.1.
The same measure, in the same setting: with `Cc1cccc(CN)c1` the figure was 9.37; with `CC[C@H](C(=O)[O-])[C@H](CO)Cc1cncn1C`, 7.47.
`Nc1ccc(O)c2ncccc12` had a pKa of 5.67.
`NCCC(=O)c1ccccc1` displayed a pKa of 8.3.
With `Cc1ccc(S(=O)(=O)[N-]CCC(=N)N)cc1`, the pKa was 10.8.
With `Clc1ccc(Nc2ccccc2)cc1`, the pKa was determined as 0.
`Nc1ccc(O)cc1O` showed a pKa of 5.7.
In turn, `O=C([O-])CN=C1CCCCC1` came in with a pKa of 9.48.
Consider `C=C(C)[C@@H]1CN[C@H](C(=O)[O-])[C@@H]1CC(=O)[O-]`, for which the pKa came out at 10.2.
As to `O=C(Nc1cccnc1)c1ccccc1`, the pKa worked out at 3.8.
As for `O=CC(c1ccccc1)c1ccccc1`, the pKa turned out to be 9.42.
`Brc1ccc2nc3c(c(N4CCOCC4)c2c1)CCC3`: the pKa was determined as 6.38.
With `[O-]c1ccnc([S-])n1`, the pKa was 12.7.
`CCNc1ncnc2[nH]ncc12`: the pKa came to 4.6.
On the same count and under the same terms, with `C=Cc1ccccn1` the figure was 4.92.
Still for that read-out and setting: with `Cc1nc(C)c(C)nc1C` the figure was 3.36; with `Cc1cc(N)cc(C)c1C`, 5.15; with `Cc1ccnc(NS(=O)(=O)c2ccccc2)n1`, 0.59.
The same measure, in the same setting: with `CC1=NCCS1` the figure was 5.29.
`Cc1[nH+]c2cccc(N)c2n1C` returned a pKa of 2.35.
The same measure, in the same setting: with `CC(C)[C@H](N)C(=O)[O-]` the figure was 9.66.
Consider `[O-][n+]1cnc2[nH]cnc2c1NCc1ccccc1`, for which the pKa turned out to be 2.66.
Compound `Cc1cc([O-])nc([O-])[n+]1C` had a pKa of 10.1.
In turn, `CCN(C#N)CC` displayed a pKa of -2.
As for `O=P([O-])(O)C([NH2+]Cc1ccncc1)c1ccccc1O` (stereo unspecified), the pKa turned out to be 3.15.
`Cc1cc2nc[nH]c2cc1C` showed a pKa of 6.04.
The compound `CCc1cccnn1` showed a pKa of 3.58.
The same measure, in the same setting: the same measure for `CCN(CC)CCCC#N`: 9.29; for `Brc1cncc2ccccc12`: 3.54; for `Nc1nnnn1-c1ccc(Cl)cc1`: 0.78.
Take `NCc1ccc(Cl)c(N)c1`: the pKa turned out to be 9.33.
Still for that read-out and setting: the same measure for `COc1ccc(-c2ncc(-c3ccc(C)cc3)o2)cc1`: 1.34; for `C#CCN`: 8.19; for `[S-]c1cnc2ccccc2[nH+]1`: -1.11.
On the same count and under the same terms, the same measure for `Nc1cnc2ccccc2n1`: 3.93; for `C#CC(C)(C)N(CC)C(C)(C)C`: 9.6; for `CC[C@@H]1C(=O)OC[C@@H]1Cc1cncn1C`: 6.99.
For `Cc1ccc(S(=O)(=O)N(C)CCC(=N)N)cc1`, the pKa turned out to be 11.5.
In turn, `CSCc1ccccn1` showed a pKa of 5.4.
For `Cc1ccc2cccnc2c1`, the pKa was found to be 5.25.
Regarding `Nc1ccc2c(c1)CCC2`, the pKa amounted to 5.35.
Same read-out and setting: with `COc1cccnc1` the figure was 4.89; with `NCC(=O)NCC(=O)NCC(=O)N1CCC[C@H]1C(=O)[O-]` (H-GGGP-OH), 8.04; with `NC(=O)c1ccncc1`, 3.57.
The same measure, in the same setting: with `CC1CNCC[NH2+]1` (stereo unspecified) the figure was 5.46.
For the compound `CCO[Si](C)(CN)OCC`, the pKa amounted to 9.19.
Still for that read-out and setting: the same measure for `Cc1nc(N)nc(N)n1`: 4.59; for `COc1ccc2c3c1O[C@@H]1C(=O)CC[C@]4(O)[C@H](C2)N(C)CC[C@@]314`: 8.6; for `c1cc(N2CCOCC2)c2c(N3CCOCC3)cccc2c1`: 7.49.
In turn, `Cn1c(=O)[nH]c2nc[nH]c2c1=O` came in with a pKa of 1.19.
Same read-out and setting: with `c1ccc(-c2cccc(-c3cccc[nH+]3)n2)nc1` the figure was 3.28.
Consider `N[C@H](c1ccccc1)[C@H](O)c1ccccc1`, for which the pKa came to 10.5.
The compound `CN(C)CC(Cl)CCl` (stereo unspecified) displayed a pKa of 7.5.
The same measure, in the same setting: with `NC(=O)Nc1ncnc2nc[nH]c12` the figure was 2.35; with `CC/C=C/Cc1nc(C(=O)[O-])cn1[C@H](C(=O)[O-])C(C)(C)S`, 6.4.
Consider `Cc1ccc2c(c1)ncn2[C@H]1OC[C@H](O)[C@@H](O)[C@@H]1O`, for which the pKa was found to be 4.17.
On the same count and under the same terms, with `CN(CCCN)CCCN` the figure was 10.4.
In turn, `Cn1cnc2c(N)nc[nH+]c21` gave a pKa of -0.59.
`CC(N)CO` (stereo unspecified) came in with a pKa of 9.43.
The compound `CN(C)CC(=O)[O-]` displayed a pKa of 9.81.
For `CCN(CC)CCC(C)=O`, the pKa worked out at 9.25.
In turn, `NNC(=O)[C@H](Cc1c[nH]c[nH+]1)NC(=O)OCc1ccccc1` registered a pKa of 2.5.
`CCN(CC)CCNc1nc(C)cc(Nc2ccc(Cl)cc2)n1` registered a pKa of 9.6.
In turn, `CCCNC(=O)[C@H](Cc1c[nH]cn1)NC(=O)c1cccc(CNCC[NH3+])n1` returned a pKa of 6.5.
The compound `COc1ccc2c(c1)cc(C)n2C` showed a pKa of 0.25.
`CN(C)c1ccc(C2CN3CCC2CC3)cc1` (stereo unspecified) registered a pKa of 10.3.
`Nc1ccnc2c1ncn2CCOCP(=O)([O-])O`: the pKa was 5.52.
With `CC(C)N1CCCCC1`, the pKa stood at 11.
`Cc1c(N)ccc2c1-c1ccccc1C2` displayed a pKa of 4.83.
Turning to `Nc1cccc2c1nnn2[C@@H]1C[C@@H](O)[C@H](CO)O1`, the pKa was 1.9.
For `Cn1cccnc1=N`, the pKa came to 10.8.
`Cn1c(=O)c2c([O-])cnnc2n(C)c1=O` showed a pKa of 8.51.
The compound `Nc1ccc(N)c(N)c1` yielded a pKa of 6.1.
`COc1ncc2[nH]cnc2n1` showed a pKa of 2.44.
`C1CCN(CCC[NH+]2CCCCC2)CC1` yielded a pKa of 7.97.
On the same count and under the same terms, the same measure for `C[NH+](C)CCCCCNc1c2ccccc2nc2cccc([N+](=O)[O-])c12`: 7.4; for `c1ccc(CN(CC2=NCCN2)c2ccccc2)cc1`: 10.1.
In turn, `N[C@H]1CCCC[C@H]1C(=O)Oc1ccc([N+](=O)[O-])cc1` yielded a pKa of 8.42.
The compound `OCc1c[nH]cn1` showed a pKa of 6.38.
In the case of `Cc1ccc(C(O)CN)cc1` (stereo unspecified), the pKa amounted to 9.06.
For the compound `COc1ccc(CCN)cc1OC`, the pKa is 9.87.
Same read-out and setting: the same measure for `[O-]c1ccc2ccccc2n1`: 11.7.
On the same count and under the same terms, the same measure for `C[NH+](C)CCCN=C(c1ccccc1)c1ccccc1`: 5.2; for `CN(C)c1cccnc1`: 6.67; for `CN(C)Cc1c(C(C)(C)C)cccc1C(C)(C)C`: 9.2.
